Values quoted from earlier work in patent US20130316000A1, “COMPOSITIONS AND METHODS FOR TREATMENT OF IRRITABLE BOWEL SYNDROME WITH 5-AMINOSALICYLATE” (priority 2012, published 2013).

- concentration detected in human breast milk: low concentrations
Structure (SMILES): Nc1ccc(O)c(C(=O)O)c1 [mesalamine, 5-aminosalicylic acid]
